Assay [1] deals with Pseudomonas aeruginosa (ATCC27853). The assay is described as follows: microbe, parasite or virus in culture. In kind it is cell-based. The following applies: read-out: MIC P. aeruginosa ATCC 27853.
The subject of another assay is S. aureus ATCC 29213. Description: MIC, S. aureus ATCC 29213 + 50% HS. In kind it is cell-based. The following applies: Staphylococcus aureus, ATCC29213.
Assay [2] relates to P. aeruginosa NTUH-974 (MDR). Description: MIC, P. aeruginosa NTUH-974 (MDR). Format: cell-based. The following applies: Pseudomonas aeruginosa, read-out: MIC P. aeruginosa NTUH-974 (MDR).
Assay [3] deals with Enterococcus faecalis (ATCC29212). The assay is described as follows: MIC, broth microdilution (CLSI), Enterococcus faecalis ATCC29212. Format: cell-based. Particulars: read-out: MIC E. faecalis ATCC 29212. Background: In broth dilution the organism is exposed to a series of concentrations in liquid medium.
For the next assay, the system named is E. faecium ATCC 700221. The assay is described as follows: MIC, E. faecium ATCC 700221. In kind it is cell-based. The following applies: Enterococcus faecium, ATCC700221; read-out: MIC E. faecium ATCC 700221.
Assay [4] deals with Escherichia coli (ATCC25922). Description: MIC, broth microdilution (CLSI), Escherichia coli ATCC25922.
For assay [5], the system named is Staphylococcus aureus (ATCC25923). Description: MIC, broth microdilution (CLSI), Staphylococcus aureus ATCC25923. The following applies: ATCC25923, read-out: S. aureus ("Clinical") MIC.
The test system of a further assay is E. coli JW5503. The assay is described as follows: MIC, E. coli JW5503. Format: cell-based. Particulars: Escherichia coli, JW5503, read-out: MIC E. coli JW5503.
In assay [6] the test system is E. coli RNase P RNA, M1 RNA. The assay is described as follows: Inhibition of bacterial RNase P activity, IC50 determination (cleavage of pATSerUG by M1 RNA). In kind it is biochemical. Particulars: NI = No inhibition.
The test system of assay [7] is S. aureus MRSA ATCC 33591. The assay is described as follows: MIC, S. aureus MRSA ATCC 33591. In kind it is cell-based. The following applies: Staphylococcus aureus; read-out: MIC S. aureus MRSA ATCC 33591.
The next assay deals with N. gonorrhoeae 612501. The assay is described as follows: MIC, N. gonorrhoeae 612501. Format: cell-based. Particulars: Neisseria gonorrhoeae.
In the next assay the test system is H. influenzae ATCC 49247. Description: MIC, H. influenzae ATCC 49247. In kind it is cell-based. The following applies: Haemophilus influenzae, ATCC49247.
The test system of another assay is K. pneumoniae ATCC 43816. The assay is described as follows: MIC, K. pneumoniae ATCC 43816. In kind it is cell-based. Particulars: Klebsiella pneumoniae, ATCC43816.
In the next assay the test system is S. pneumoniae ATCC 49619. Description: MIC, S. pneumoniae ATCC 49619. Format: cell-based. The following applies: Streptococcus pneumoniae, ATCC49619.
For another assay, the system named is A. baumannii ATCC 17978. Description: MIC, A. baumannii ATCC 17978. Format: cell-based. The following applies: Acinetobacter baumannii, ATCC17978.
Assay [8] deals with Staphylococcus aureus subsp. aureus (ATCC29213). The assay is described as follows: MIC, broth microdilution (CLSI), Staphylococcus aureus subsp. aureus ATCC29213. Format: cell-based.
The mark [9] stands for this setting: ATCC25922, read-out: E. coli MIC, Table 15, NI = No inhibition.
Where [10] appears, read: ATCC25922, read-out: MIC E. coli ATCC 25922, Table 16.
Setting [11] is: ATCC29213, Table 15, read-out: S. aureus ("wound") (MIC).
The mark [12] stands for this setting: ATCC29213, Table 16, read-out: MIC S. aureus ATCC 29213.

Among the data in patent US11130741B2 (Bioimics AB, priority 2016, dated 2021) are MIC and IC50 values, retold here.

≈ marks a conversion by molar mass, not a printed value. Read-outs that look alike come from different tables or passages of the source. Some results are limits rather than exact numbers.

For the molecule `CN(C)CCCN1c2ccccc2Sc2cc(-c3cc4ccccc4[nH]3)ccc21` [compound 111, 3-(3-(1H-Indol-2-yl)-10H-phenothiazin-10-yl)-N,N-dimethylpropan-1-amine], the MIC was more than 128 µg/mL in assay [1]; 128 µg/mL in the assay on S. aureus ATCC 29213; more than 128 µg/mL in assay [2]; 4 µg/mL (≈ 10 µM) in [3]; 2 µg/mL (≈ 5.01 µM) with E. faecium ATCC 700221; more than 100 µg/mL in [4] (setting [9]). For the same molecule, the MIC is 64 µg/mL (≈ 160 µM) in [4] (setting [10]); 3 µg/mL (≈ 7.51 µM) in assay [5]; 4 µg/mL (≈ 10 µM) in the assay on E. coli JW5503; 4 µg/mL (≈ 10 µM) in assay [7]; 2 µg/mL (≈ 5.01 µM) in the assay on N. gonorrhoeae 612501; 16 µg/mL (≈ 40 µM) against H. influenzae ATCC 49247. Also, the MIC in the assay on K. pneumoniae ATCC 43816 was more than 128 µg/mL; against S. pneumoniae ATCC 49619, 8 µg/mL (≈ 20 µM); in the assay with A. baumannii ATCC 17978, 64 µg/mL (≈ 160 µM); in [8] (setting [11]), 3 µg/mL (≈ 7.51 µM); in assay [8] (setting [12]), 2 µg/mL (≈ 5.01 µM). In addition, the IC50 in [6] is approximately 20 µM.
For `CNCCCN1c2ccccc2Sc2cc(-c3cc4ccccc4[nH]3)ccc21` [compound 186, 3-(3-(1H-indol-2-yl)-10H-phenothiazin-10-yl)-N-methylpropan-1-amine], the MIC in [1] is more than 128 µg/mL; in the assay with S. aureus ATCC 29213, 64 µg/mL; in assay [2] it was more than 128 µg/mL; in assay [3] it was 4 µg/mL (≈ 10.4 µM); in the assay with E. faecium ATCC 700221 it was 4 µg/mL (≈ 10.4 µM); in [4] (setting [9]), 99 µg/mL (≈ 257 µM). Further, the MIC was found to be 16 µg/mL (≈ 41.5 µM) in [4] (setting [10]); 2 µg/mL (≈ 5.19 µM) in [5]; 4 µg/mL (≈ 10.4 µM) in the assay with E. coli JW5503; 8 µg/mL (≈ 20.8 µM) in assay [7]; 4 µg/mL (≈ 10.4 µM) against N. gonorrhoeae 612501; 16 µg/mL (≈ 41.5 µM) with H. influenzae ATCC 49247. Also, the MIC turned out to be 128 µg/mL (≈ 332 µM) in the assay on K. pneumoniae ATCC 43816, 32 µg/mL (≈ 83 µM) in the assay with S. pneumoniae ATCC 49619, 16 µg/mL (≈ 41.5 µM) in the assay on A. baumannii ATCC 17978 and 4 µg/mL (≈ 10.4 µM) in assay [8] (setting [12]). Also, in [6], the IC50 is 30 µM.
Regarding `O=C(/C=C/c1ccc(F)cc1)Nc1cc(C(F)(F)F)cc2c1Nc1ccccc1S2` [compound 92, E-3-(4-fluorophenyl)-N-(3-(trifluoromethyl)-10H-phenothiazin-1-yl)acrylamide], the MIC in assay [1] was more than 128 µg/mL; with S. aureus ATCC 29213 it was 128 µg/mL; in [2] it was more than 128 µg/mL; in [3] it was 2 µg/mL (≈ 4.65 µM); with E. faecium ATCC 700221, 0.5 µg/mL (≈ 1.16 µM); in [4] (setting [9]), more than 100 µg/mL. For the same molecule, the MIC was more than 128 µg/mL in assay [4] (ATCC25922, read-out: MIC E. coli ATCC 25922); 1 µg/mL (≈ 2.32 µM) in assay [5]; more than 128 µg/mL in the assay on E. coli JW5503; 2 µg/mL (≈ 4.65 µM) in [7]; 0.25 µg/mL (≈ 0.581 µM) against N. gonorrhoeae 612501; more than 128 µg/mL in the assay with H. influenzae ATCC 49247. In addition, the MIC in the assay with K. pneumoniae ATCC 43816 was more than 128 µg/mL; against S. pneumoniae ATCC 49619, 8 µg/mL (≈ 18.6 µM); in the assay on A. baumannii ATCC 17978 it was more than 128 µg/mL; in assay [8] (setting [11]), 1 µg/mL (≈ 2.32 µM); in assay [8] (setting [12]), 0.5 µg/mL (≈ 1.16 µM). The molecule also returned an IC50 in assay [6] of more than 100 µM.
Take `CC(C)NCCCN1c2ccccc2Sc2cc(-c3cc4ccccc4[nH]3)ccc21` [compound 197, 3-(3-(1H-indol-2-yl)-10H-phenothiazin-10-yl)-N-isopropylpropan-1-amine]: the MIC was more than 128 µg/mL in [1]; 128 µg/mL in the assay with S. aureus ATCC 29213; more than 128 µg/mL in [2]; 2 µg/mL (≈ 4.84 µM) in [3]; 2 µg/mL (≈ 4.84 µM) in the assay with E. faecium ATCC 700221; 64 µg/mL (≈ 155 µM) in assay [4] (setting [10]). The MIC in assay [5] was 6 µg/mL (≈ 14.5 µM); in the assay on E. coli JW5503, 4 µg/mL (≈ 9.67 µM); in assay [7] it was 16 µg/mL (≈ 38.7 µM); in the assay with N. gonorrhoeae 612501, 1 µg/mL (≈ 2.42 µM); against H. influenzae ATCC 49247, 16 µg/mL (≈ 38.7 µM); against K. pneumoniae ATCC 43816, more than 128 µg/mL. Further, the MIC against S. pneumoniae ATCC 49619 stood at 4 µg/mL (≈ 9.67 µM); with A. baumannii ATCC 17978 it was 64 µg/mL (≈ 155 µM); in assay [8] (setting [11]) it was 4 µg/mL (≈ 9.67 µM); in assay [8] (setting [12]), 2 µg/mL (≈ 4.84 µM). In [6], this molecule came in with an IC50 of 25 µM.

By IC50 is commonly meant the concentration that inhibits the measured activity by half.
